Experiments:
rice = experiment: Test B flooded paddy test; type: in vivo, Oryza sativa; conditions: Flood, 250 g ai/ha; 0 to 100 scale where 0 is no effect and 100 is complete control
Method: (§1) Plant species in the flooded paddy test selected from rice (Oryza sativa), sedge, umbrella (small-flower umbrella sedge, Cyperus difformis), (Heteranthera limosa), and barnyardgrass (Echinochloa crus-galli) were grown to the 2-leaf stage for testing. At time of treatment, test pots were flooded to 3 cm above the soil surface, treated by application of test compounds directly to the paddy water, and then maintained at that water depth for the duration of the test. Treated plants and controls were maintained in a greenhouse for 13 to 15 days, after which time all species were compared to controls and visually evaluated. Plant response ratings, summarized in Table B, are based on a scale of 0 to 100 where 0 is no effect and 100 is complete control. A dash (-) response means no test result.

large (Lg) crabgrass [1] = experiment: Test A preemergence; type: in vivo, Digitaria sanguinalis
In short: (§2)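 Visual 0–100 rating (100 = complete control) taken about 10 d post-treatment relative to untreated checks. Preemergence: directed soil spray on sown loam/sand pots. Postemergence: seedlings 2–10 cm, 1–2 leaf. Non-phytotoxic solvent formulation with surfactant.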

pigweed [2] = experiment: Test A preemergence; type: in vivo, Amaranthus retroflexus
In short: as §2

large (Lg) crabgrass [3] = experiment: Test A postemergence; type: in vivo, Digitaria sanguinalis
In short: as §2

barnyardgrass [4] = experiment: Test A postemergence; type: in vivo, Echinochloa crus-galli
In short: as §2

corn [5] = experiment: Test A preemergence; type: in vivo, Zea mays
In short: as §2

pigweed [6] = experiment: Test A postemergence; type: in vivo, Amaranthus retroflexus
In short: as §2

wheat [7] = experiment: Test A postemergence; type: in vivo, Triticum aestivum
In short: as §2

morningglory [8] = experiment: Test A preemergence; type: in vivo, Ipomoea spp.
In short: as §2

velvetleaf [9] = experiment: Test A postemergence; type: in vivo, Abutilon theophrasti
In short: as §2

Heteranthera limosa = experiment: Test B flooded paddy test; type: in vivo; conditions: Flood, 250 g ai/ha; 0 to 100 scale where 0 is no effect and 100 is complete control
In short: (§3)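 Plants at 2-leaf stage; pots flooded to 3 cm above soil and compound applied directly into paddy water, depth held throughout. After 13 to 15 days in greenhouse, visual rating versus controls on 0 (no effect) to 100 (complete control) scale.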

barnyardgrass [10] = experiment: Test A preemergence; type: in vivo, Echinochloa crus-galli
In short: as §2

sedge, umbrella = experiment: Test B flooded paddy test; type: in vivo, Cyperus difformis; conditions: Flood, 250 g ai/ha; 0 to 100 scale where 0 is no effect and 100 is complete control
Method: as §1

velvetleaf [11] = experiment: Test A preemergence; type: in vivo, Abutilon theophrasti
In short: as §2

morningglory [12] = experiment: Test A postemergence; type: in vivo, Ipomoea spp.
In short: as §2

wheat [13] = experiment: Test A preemergence; type: in vivo, Triticum aestivum
In short: as §2

corn [14] = experiment: Test A postemergence; type: in vivo, Zea mays
In short: as §2

giant foxtail [15] = experiment: Test A postemergence; type: in vivo, Setaria faberii
In short: as §2

giant foxtail [16] = experiment: Test A preemergence; type: in vivo, Setaria faberii
In short: as §2

barnyardgrass [17] = experiment: Test B flooded paddy test; type: in vivo, Echinochloa crus-galli; conditions: Flood, 250 g ai/ha; 0 to 100 scale where 0 is no effect and 100 is complete control
In short: as §3

[18] = 125 g ai/ha, 0 to 100 scale where 0 is no effect and 100 is complete control
[19] = 500 g ai/ha, 0 to 100 scale, 0 no effect, 100 complete control, approx. 10 days
[20] = 500 g ai/ha, 0 to 100 scale, 0 no effect, 100 complete control
[21] = 1000 g ai/ha, 0 to 100 scale, 0 no effect, 100 complete control
[22] = 1000 g ai/ha, 0 to 100 scale, 0 no effect, 100 complete control, approx. 10 days

SMILES	Plant response rating, Rice (rice)	Crabgrass, Large plant response rating (large (Lg) crabgrass [1]; [19])	Pigweed plant response rating (pigweed [2]; [19])	Plant response rating, Crabgrass, Large (large (Lg) crabgrass [3]; [18])	Plant response rating, Crabgrass, Large (large (Lg) crabgrass [3]; [20])	Plant response rating, Barnyardgrass (barnyardgrass [4]; [18])	Plant response rating, Barnyardgrass (barnyardgrass [4]; [20])	Corn plant response rating (corn [5]; [19])	Plant response rating, Pigweed (pigweed [6]; [18])	Plant response rating, Pigweed (pigweed [6]; [20])	Plant response rating, Wheat (wheat [7]; [18])	Plant response rating, Wheat (wheat [7]; [20])	Morningglory plant response rating (morningglory [8]; [19])	Plant response rating, Velvetleaf (velvetleaf [9]; [18])	Plant response rating, Velvetleaf (velvetleaf [9]; [20])	Plant response rating, Ducksalad (Heteranthera limosa)	Barnyardgrass plant response rating (barnyardgrass [10]; [19])	Plant response rating, Sedge, Umbrella (sedge, umbrella)	Velvetleaf plant response rating (velvetleaf [11]; [19])	Plant response rating, Barnyardgrass (barnyardgrass [17])	other results
FC(F)(F)c1cnc(Oc2ccccc2-n2cc(Cl)cn2)nc1 [Compound 6]	15	100	100	50	100	40	100	20	100	100	40	90	10	100	100	65	90	55	100	0	Crabgrass, Large plant response rating (large (Lg) crabgrass [1]; [18]): 90; Pigweed plant response rating (pigweed [2]; [18]): 100; Corn plant response rating (corn [5]; [18]): 0; Morningglory plant response rating (morningglory [8]; [18]): 0; Barnyardgrass plant response rating (barnyardgrass [10]; [18]): 20; Velvetleaf plant response rating (velvetleaf [11]; [18]): 100; Plant response rating, Morningglory (morningglory [12]; [18]): 40; Plant response rating, Morningglory (morningglory [12]; [20]): 70; Wheat plant response rating (wheat [13]; [18]): 0; Wheat plant response rating (wheat [13]; [19]): 30; Plant response rating, Corn (corn [14]; [18]): 20; Plant response rating, Corn (corn [14]; [20]): 60; Plant response rating, Foxtail, Giant (giant foxtail [15]; [18]): 80; Plant response rating, Foxtail, Giant (giant foxtail [15]; [20]): 100; Foxtail, Giant plant response rating (giant foxtail [16]; [18]): 90; Foxtail, Giant plant response rating (giant foxtail [16]; [19]): 100
Fc1cnc(Oc2ccccc2-n2cc(Cl)cn2)nc1 [Compound 11]	0	100	100	70	90	10	90	30	100	100	0	20	60	100	100	50	100	0	100	0	Crabgrass, Large plant response rating (large (Lg) crabgrass [1]; [18]): 90; Pigweed plant response rating (pigweed [2]; [18]): 90; Corn plant response rating (corn [5]; [18]): 0; Morningglory plant response rating (morningglory [8]; [18]): 30; Barnyardgrass plant response rating (barnyardgrass [10]; [18]): 70; Velvetleaf plant response rating (velvetleaf [11]; [18]): 90; Plant response rating, Morningglory (morningglory [12]; [18]): 60; Plant response rating, Morningglory (morningglory [12]; [20]): 100; Wheat plant response rating (wheat [13]; [18]): 0; Wheat plant response rating (wheat [13]; [19]): 0; Plant response rating, Corn (corn [14]; [18]): 10; Plant response rating, Corn (corn [14]; [20]): 50; Plant response rating, Foxtail, Giant (giant foxtail [15]; [18]): 70; Plant response rating, Foxtail, Giant (giant foxtail [15]; [20]): 90; Foxtail, Giant plant response rating (giant foxtail [16]; [18]): 90; Foxtail, Giant plant response rating (giant foxtail [16]; [19]): 100
Brc1cnc(Oc2ccccc2-n2cccn2)nc1 [Compound 13]	0															30		0		0	Plant response rating, Crabgrass, Large (large (Lg) crabgrass [1]; [21]): 100; Pigweed plant response rating (pigweed [2]; [22]): 100; Plant response rating, Crabgrass, Large (large (Lg) crabgrass [3]; [21]): 90; Plant response rating, Barnyardgrass (barnyardgrass [4]; [21]): 90; Plant response rating, Corn (corn [5]; [21]): 0; Plant response rating, Pigweed (pigweed [6]; [21]): 100; Plant response rating, Wheat (wheat [7]; [21]): 60; Morningglory plant response rating (morningglory [8]; [22]): 0; Plant response rating, Velvetleaf (velvetleaf [9]; [21]): 100; Plant response rating, Barnyardgrass (barnyardgrass [10]; [21]): 80; Velvetleaf plant response rating (velvetleaf [11]; [22]): 100; Plant response rating, Morningglory (morningglory [12]; [21]): 90; Wheat plant response rating (wheat [13]; [22]): 20; Plant response rating, Corn (corn [14]; [21]): 40; Plant response rating, Foxtail, Giant (giant foxtail [15]; [21]): 100; Foxtail, Giant plant response rating (giant foxtail [16]; [22]): 100
FC(F)(F)c1cnc(Oc2ccccc2-n2cc(C(F)(F)F)cn2)nc1 [Compound 17]	25	90	100	20	90	0	20	0	70	100	0	50	20	50	100	75	60	90	90	0	Crabgrass, Large plant response rating (large (Lg) crabgrass [1]; [18]): 40; Pigweed plant response rating (pigweed [2]; [18]): 100; Corn plant response rating (corn [5]; [18]): 0; Morningglory plant response rating (morningglory [8]; [18]): 0; Barnyardgrass plant response rating (barnyardgrass [10]; [18]): 50; Velvetleaf plant response rating (velvetleaf [11]; [18]): 70; Plant response rating, Morningglory (morningglory [12]; [18]): 20; Plant response rating, Morningglory (morningglory [12]; [20]): 50; Wheat plant response rating (wheat [13]; [18]): 0; Wheat plant response rating (wheat [13]; [19]): 70; Plant response rating, Corn (corn [14]; [18]): 0; Plant response rating, Corn (corn [14]; [20]): 40; Plant response rating, Foxtail, Giant (giant foxtail [15]; [18]): 20; Plant response rating, Foxtail, Giant (giant foxtail [15]; [20]): 90; Foxtail, Giant plant response rating (giant foxtail [16]; [18]): 60; Foxtail, Giant plant response rating (giant foxtail [16]; [19]): 90
Clc1cnc(Oc2ccccc2-n2cc(Br)c(Br)n2)nc1 [Compound 19]	20	90	100	0	20	0	20	0	30	90	0	0	0	30	60	40	20	30	20	0	Plant response rating, Crabgrass, Large (large (Lg) crabgrass [1]; [18]): 0; Plant response rating, Pigweed (pigweed [2]; [18]): 0; Plant response rating, Corn (corn [5]; [18]): 0; Plant response rating, Morningglory (morningglory [8]; [18]): 0; Plant response rating, Barnyardgrass (barnyardgrass [10]; [18]): 0; Plant response rating, Velvetleaf (velvetleaf [11]; [18]): 0; Plant response rating, Morningglory (morningglory [12]; [18]): 0; Plant response rating, Morningglory (morningglory [12]; [20]): 40; Plant response rating, Wheat (wheat [13]; [18]): 0; Wheat plant response rating (wheat [13]; [19]): 0; Plant response rating, Corn (corn [14]; [18]): 0; Plant response rating, Corn (corn [14]; [20]): 30; Plant response rating, Foxtail, Giant (giant foxtail [15]; [18]): 0; Plant response rating, Foxtail, Giant (giant foxtail [15]; [20]): 30; Plant response rating, Foxtail, Giant (giant foxtail [16]; [18]): 20; Foxtail, Giant plant response rating (giant foxtail [16]; [19]): 90

— patent publication US9695155B2, “Herbicidal substituted pyrimidinyloxy benzene compounds” (E. I. DU PONT DE NEMOURS AND COMPANY, priority 2013, dated 2017)
